Results: US10975078B2, “Fused indazole pyridone compounds as antivirals” (priority 2017, dated 2021)
Like-named read-outs stand apart in the source and are kept apart here.

Test system: HBsAg secretion, HepG2-Clone42 cells (Tet-inducible HBV-expressing, HBV ayw strain)
Experiment: HBsAg assay (HBsAg ELISA, secreted HBV sAg from HepG2-Clone42 cells)
Format: cell-based
How it was run: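 HepG2-Clone42 cells (Tet-inducible, integrated 1.3-mer HBV ayw) treated 24 h post-seeding with five-fold serial compound dilutions, 0.5% DMSO final. Secreted HBsAg measured by ELISA (A450); EC50 for 50% reduction vs DMSO control after background subtraction, four-parameter logistic fit.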

[1] = Hepatitis B virus, read-out: HBsAg (nM), EC50 = concentration at which HBsAg secretion was reduced 50% compared to DMSO control
[2] = read-out: HBsAg, EC50 = concentration at which HBsAg secretion was reduced 50% compared to DMSO control

Row | SMILES | EC50 [1] | EC50 [2]
1 | CC(C)(C)C1Cn2nc3c(OCC4CCOC4)cccc3c2-c2cc(=O)c(C(=O)O)cn21 (racemic) [Example 2.8, 6-(tert-butyl)-2-oxo-10-((tetrahydrofuran-3-yl)methoxy)-6,7-dihydro-2H-pyrido[2′,1′:3,4]pyrazino[1,2-b]indazole-3-carboxylic Acid] | < 1 nM | –
2 | COc1ccc2c3n(nc2c1)CC(C(C)(C)C)n1cc(C(=O)O)c(=O)cc1-3 (single isomer, unassigned) [Example 1.2-II, 6-(tert-butyl)-11-methoxy-2-oxo-6,7-dihydro-2H-pyrido[2′,1′:3,4]pyrazino[1,2-b]indazole-3-carboxylic acid] | – | 1 to 100 nM
3 | COCCCOc1cccc2c3n(nc12)CC(C(C)(C)C)n1cc(C(=O)O)c(=O)cc1-3 (single isomer, unassigned) [Example 2.1-II, 6-(tert-butyl)-10-(3-methoxypropoxy)-2-oxo-6,7-dihydro-2H-pyrido[2′,1′:3,4]pyrazino[1,2-b]indazole-3-carboxylic Acid] | – | 1 to 100 nM
4 | CC(C)(C)C1Cn2nc3c(OC(F)F)cccc3c2-c2cc(=O)c(C(=O)O)cn21 (stereo not drawn) [Example 2.5, 6-(tert-butyl)-10-(difluoromethoxy)-2-oxo-6,7-dihydro-2H-pyrido[2′,1′:3,4]pyrazino[1,2-b]indazole-3-carboxylic Acid] | 1 to 100 nM | –
5 | CC(C)(C)C1Cn2nc3c(OCC4CC(F)(F)C4)cccc3c2-c2cc(=O)c(C(=O)O)cn21 (racemic) [Example 2.39, 6-(tert-butyl)-10-((3,3-difluorocyclobutyl)methoxy)-2-oxo-6,7-dihydro-2H-pyrido[2′,1′:3,4]pyrazino[1,2-b]indazole-3-carboxylic Acid] | < 1 nM | –
6 | CN(C)C(=O)COc1cccc2c3n(nc12)CC(C(C)(C)C)n1cc(C(=O)O)c(=O)cc1-3 (racemic) [Example 2.36, 6-(tert-butyl)-10-(2-(dimethylamino)-2-oxoethoxy)-2-oxo-6,7-dihydro-2H-pyrido[2′,1′:3,4]pyrazino[1,2-b]indazole-3-carboxylic Acid] | < 1 nM | –
7 | CC(C)(C)C1Cn2nc3c(OCC4CNC4)cccc3c2-c2cc(=O)c(C(=O)O)cn21 (racemic) [Example 2.32, 10-(azetidin-3-ylmethoxy)-6-(tert-butyl)-2-oxo-6,7-dihydro-2H-pyrido[2′,1′:3,4]pyrazino[1,2-b]indazole-3-carboxylic Acid] | > 100 nM | –
8 | COCC(C)Oc1cccc2c3n(nc12)CC(C(C)(C)C)n1cc(C(=O)O)c(=O)cc1-3 (single isomer, unassigned) [Example 2.35-II, 6-(tert-butyl)-10-((1-methoxypropan-2-yl)oxy)-2-oxo-6,7-dihydro-2H-pyrido[2′,1′:3,4]pyrazino[1,2-b]indazole-3-carboxylic Acid] | – | 1 to 100 nM
9 | COCCOc1cccc2c3n(nc12)C1CCC(C)(C)C1n1cc(C(=O)O)c(=O)cc1-3 (single isomer, unassigned) [Example 6.2-I, 12-(2-methoxyethoxy)-3,3-dimethyl-7-oxo-2,3,3a,14a-tetrahydro-1H,7H-cyclopenta[5,6]pyrido[2′,1′:3,4]pyrazino[1,2-b]indazole-6-carboxylic Acid] | 1 to 100 nM | –
10 | COc1ccc2nn3c(c2c1)-c1cc(=O)c(C(=O)O)cn1C(C(C)(C)C)C3 (single isomer, unassigned) [Example 1.3-I, 6-(tert-butyl)-12-methoxy-2-oxo-6,7-dihydro-2H-pyrido[2′,1′:3,4]pyrazino[1,2-b]indazole-3-carboxylic acid] | – | 1 to 100 nM
11 | CC(C)(C)C1Cn2nc3c(OC[C@@H]4CCC(=O)N4)cccc3c2-c2cc(=O)c(C(=O)O)cn21 (single isomer, unassigned) [Example 2.33-II] | – | > 100 nM
12 | COc1cccc2c3n(nc12)CC(C(C)(C)C)n1cc(C(=O)O)c(=O)cc1-3 (single isomer, unassigned) [Example 1.1-II, 6-(tert-butyl)-10-methoxy-2-oxo-6,7-dihydro-2H-pyrido[2′,1′:3,4]pyrazino[1,2-b]indazole-3-carboxylic acid] | – | > 100 nM
